Data as given in article PMC3471820, “The CoxD Protein, a Novel AAA+ ATPase Involved in Metal Cluster Assembly: Hydrolysis of Nucleotide-Triphosphates and Oligomerization” (PLoS ONE, 2012).

Columns and labels:
CoxD [1] = biological target: T1, CoxD (Afipia carboxidovorans, UniProt Q51326); assay: GTP hydrolysis, inorganic phosphate release; assay type: biochemical; conditions: 100 mM Tris/acetate pH 8.0, 1 mM Na2GTP, 1 mM Mg-acetate, 25 °C; weak side activity
T1 construct: mainly hexamer, also dimer and tetramer (homo-oligomer)
T1 sequence (Q51326 1-295): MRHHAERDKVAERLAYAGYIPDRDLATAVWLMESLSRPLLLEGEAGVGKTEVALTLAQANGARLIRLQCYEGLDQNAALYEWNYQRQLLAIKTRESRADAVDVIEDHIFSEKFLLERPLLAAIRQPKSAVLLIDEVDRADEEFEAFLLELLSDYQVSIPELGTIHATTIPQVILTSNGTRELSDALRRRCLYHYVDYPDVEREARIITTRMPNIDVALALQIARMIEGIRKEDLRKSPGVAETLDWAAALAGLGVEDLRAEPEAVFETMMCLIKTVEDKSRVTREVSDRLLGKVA

CoxD [2] = biological target: T1, CoxD; assay: inhibition of ATP hydrolysis, ADP release; assay type: biochemical; conditions: 100 mM Tris/acetate pH 8.0, 1 mM Mg-acetate, 25 °C; refolded enzyme; 1 mM ATP; competes with ATP; slowly hydrolysable analogue
purified protein = substrate: Nc1ncnc2c1ncn2[C@@H]1O[C@H](COP(=O)(O)OP(=O)(O)OP(=O)(O)O)[C@@H](O)[C@H]1O; assay: purified protein; conditions: 100 mM Tris/acetate pH 8.0, 1 mM Mg-acetate, 25 °C, refolded enzyme

Nc1nc2c(ncn2[C@@H]2O[C@H](COP(=O)(O)OP(=O)(O)OP(=O)(O)O)[C@@H](O)[C@H]2O)c(=O)[nH]1 [GTP]
GTP hydrolysis, inorganic phosphate release (CoxD [1]): formed from GTP

Nc1ncnc2c1ncn2[C@@H]1O[C@H](COP(=O)(O)OP(=O)(O)OP(O)(O)=S)[C@@H](O)[C@H]1O [ATP-γ-S]
inhibition of ATP hydrolysis (qualitative) (CoxD [2]): It very effectively competed with ATP for CoxD

B1: CoxD (Afipia carboxidovorans OM5) (protein)
chain: MRHHAERDKVAERLAYAGYIPDRDLATAVWLMESLSRPLLLEGEAGVGKTEVALTLAQANGARLIRLQCYEGLDQNAALYEWNYQRQLLAIKTRESRADAVDVIEDHIFSEKFLLERPLLAAIRQPKSAVLLIDEVDRADEEFEAFLLELLSDYQVSIPELGTIHATTIPQVILTSNGTRELSDALRRRCLYHYVDYPDVEREARIITTRMPNIDVALALQIARMIEGIRKEDLRKSPGVAETLDWAAALAGLGVEDLRAEPEAVFETMMCLIKTVEDKSRVTREVSDRLLGKVA
Km (purified protein): 690 ± 140 µM
